Laboratory results from US7569607B2, “Spider esters in personal care applications” (SurfaTech Corporation, priority 2005, dated 2009).

Assay: Sun Screen Solubility (appearance of sunscreen dissolved in ester)
Format: physicochemical
Settings: for Age Appearance: after 48 hours at room temperature, 24 hours in refrigerator (37° F.) and 48 hours at room temperature; for Initial Appearance: solvent ester not named

Row | Structure (SMILES) | Age Appearance (1% weight sunscreen) | Initial Appearance (1% weight sunscreen) | Age Appearance (3% weight sunscreen) | Initial Appearance (3% weight sunscreen)
1 | COc1ccc(C(=O)c2ccccc2)c(O)c1 [Benzophenone 3] | Very Slight Haze^(2) | Clear | Very Slight Haze^(2) | Clear
2 | CCCCC(CC)COC(=O)C=Cc1ccc(OC)cc1 (stereo not drawn) [Octylmethoxyciminate] | Clear | Clear |  | 
